Key:
[1] = target: T1, IL-4 (Homo sapiens, UniProt P05112); assay: Immunoassay binding test, IL-4; conditions: for IC50: IL-4 400 ng/ml, receptor 100 ng/ml, read-out: BINDING IL4 IC50
T1 sequence (P05112 25-153): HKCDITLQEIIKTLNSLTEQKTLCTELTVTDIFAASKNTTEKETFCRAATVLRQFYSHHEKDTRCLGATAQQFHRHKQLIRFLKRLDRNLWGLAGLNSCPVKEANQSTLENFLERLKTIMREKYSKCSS
Method: (§1) Microtiter plates (96 wells) are covered with 100 μl of receptor per well, and incubated overnight at 4° C. The following day, after 2 washes in PBS/Tween20, the plates are saturated with 150 μl of PBS/BSA 2% per well, for 2 h at 37° C. Synthetic compounds are diluted in series (final concentrations: 100 to 0.78 μM) then a fixed amount of cytokine in PBS/BSA 1% is added to the compounds, in a final volume of 120 μl per well. […] The cytokine is diluted in series (six concentrations) in a final volume of 120 μl per well. The cytokine is used in the absence of small molecule as well as the range of SPD304 as positive controls and the absence of cytokine and synthetic molecule as negative control. The different mixtures are incubated for 2 h at 37° C. 100 μl of each mixture are then transferred to the microtiter plate, respecting the plate plan previously defined and incubated overnight at 4° C. After three washes, 100 μl of biotinylated anti-cytokine secondary antibody are added to each well, then incubated for 2 h at 37° C. After three washes, 100 μl of Avidin-HRP (1/500th dilution) are added and incubated for 30 minutes at 37° C. […] The plates are then read with a spectrophotometer at 450 nm, measuring the optical density for each well.
(§2) This binding test is carried out with different cytokines: TNFa, IL-4, IL-6 and IL-13. For IL-6, the incubation of molecules with the cytokine also requires the presence of IL-6Ra at a final concentration of 200 ng/ml.
(§3) The final concentrations used for each of the cytokines are presented below: […]

[2] = target: IL-13 (Homo sapiens, UniProt P35225); assay: Immunoassay binding test, IL-13; conditions: for IC50: IL-13 400 ng/ml, receptor 100 ng/ml, read-out: BINDING IL13 IC50
Method: as §1, with “The cytokine is used in the absence of small molecule as well as the range of SPD304 as positive controls and the absence of cytokine and synthetic molecule as negative control.” left out
as §2, §3

[3] = target: TNFα (Homo sapiens, UniProt P01375); assay: Immunoassay binding test, TNFa; conditions: compounds 100 to 0.78 μM; TNFα 10 ng/ml, receptor 100 ng/ml; read-out: BINDING TNF IC50
Method: as §1, with “C.” for “C. Synthetic compounds are diluted in series (final concentrations: 100 to 0.78 μM) then a fixed amount of cytokine in PBS/BSA 1% is added to the compounds, in a final volume of 120 μl per well.”, “The cytokine is used in the absence of small molecule as well as the range of SPD304 as positive controls and the absence of cytokine and synthetic molecule as negative control.” left out
as §2, §3

[4] = target: TNFa/TNFRI interaction (Homo sapiens, UniProt P01375); assay: TNFa/TNFRI interaction displacement test; type: binding; conditions: for Displacement EC50 TNFa in presence of compound: Difference: Compound EC50 minus SPD304 EC50; for Displacement (%): compounds at 50 μM, human TNFRI 100 ng/ml;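 as to Displacement EC50 TNFa in presence of compound: Difference: SPD304 reference at 20 µM final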
Method: Microtiter plates (96 wells) are covered with 100 μl per well of human TNFRI, at a concentration of 100 ng/ml, then incubated overnight at 4° C. The following day, after two washes in PBS/Tween20, the plates are saturated with 150 μl of PBS/BSA 2% for 2 h at 37° C.
100 μl of each mixture are then transferred to the microtiter plate, respecting the established plate plan and incubated overnight at 4° C.
After three washes, 100 μl of biotinylated anti-cytokine secondary antibody are added to each well and incubated for 2 h at 37° C. After three washes, 100 Avl Avidin-HRP (dilution 1/500th) are added and incubated for 30 minutes at 37° C. […] The plates are then read with a spectrophotometer at 450 nm, measuring the optical density (OD) for each well.

[5] = target: IL-6 (Homo sapiens, UniProt P05231); assay: Immunoassay binding test, IL-6 (gp130 receptor, IL-6Ra present); conditions: IL-6Ra 200 ng/ml
Method: as §1, §2, §3

Chain of IL-13 (P35225 25-146, species assumed): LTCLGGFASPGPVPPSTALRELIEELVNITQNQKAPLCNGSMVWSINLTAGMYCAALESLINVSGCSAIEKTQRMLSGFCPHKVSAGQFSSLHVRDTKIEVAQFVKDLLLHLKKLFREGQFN
Chain of TNFα (P01375 77-233 limits assumed, species assumed): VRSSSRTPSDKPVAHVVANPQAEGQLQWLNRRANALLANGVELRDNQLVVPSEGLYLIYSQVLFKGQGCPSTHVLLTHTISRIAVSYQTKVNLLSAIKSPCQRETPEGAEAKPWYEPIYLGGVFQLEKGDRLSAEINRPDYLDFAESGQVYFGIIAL
Chain of TNFa/TNFRI interaction (P01375 77-233 limits assumed): as the sequence (P01375 77-233 limits assumed, species assumed) above
Chain of IL-6 (P05231 30-212, species assumed): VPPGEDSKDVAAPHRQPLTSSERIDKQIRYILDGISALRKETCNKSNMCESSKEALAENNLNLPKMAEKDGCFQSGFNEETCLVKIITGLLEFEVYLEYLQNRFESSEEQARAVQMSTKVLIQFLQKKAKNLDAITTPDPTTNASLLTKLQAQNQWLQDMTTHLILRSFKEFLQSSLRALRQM

Row | Structure (SMILES) | BINDING IL4 % Neutra at 100 μM [1] [%] | IC50 [1] [µM] | BINDING IL13 % Neutra at 100 μM [2] [%] | IC50 [2] [µM] | IC50 [3] [µM] | Displacement EC50 TNFa in presence of compound: Difference [4] | Displacement (%) [4] [%] | BINDING IL6 % Neutra at 100 μM [5] [%]
1 | O=S(=O)(c1ccccc1)n1cc(CN(Cc2ccccn2)CC2CCCN(C3CCCCC3)C2)c2ccccc21 (stereo not drawn) [Compound 1] | 97.5 | 4.1 | 94.6 | 23.5 | 11.9 | 9.1 ng/mL | 178 | 5.5
2 | FC(F)(F)c1cccc(-n2cc(CN(Cc3ccccn3)CC3CCCN(C4CCCCC4)C3)c3ccccc32)c1 (stereo not drawn) [Compound 2] | 97.8 | 3.3 | 97.1 | 1.4 | 19.9 | 14.9 ng/mL | 183 | 2
3 | O=S(=O)(c1ccccc1)n1cc(CN(Cc2cccnc2)CC2CCCN(C3CCCCC3)C2)c2ccccc21 (stereo not drawn) [Compound 3] | 96.4 | 6.6 | 96.9 |  | 4.6 | 7.4 ng/mL | 196 | 5
4 | FC(F)(F)c1cccc(-n2cc(CN(Cc3cccnc3)CC3CCCN(C4CCCCC4)C3)c3ccccc32)c1 (stereo not drawn) [Compound 4] | 98.3 | 4 | 92.2 | 9.9 | 21.3 | Difference = 9 ng/ml | 221 | 5.2
5 | O=S(=O)(c1ccccc1)n1cc(CN(Cc2ccncc2)CC2CCCN(C3CCCCC3)C2)c2ccccc21 (stereo not drawn) [Compound 5] | 96.9 | 7.8 | 84.9 | > 50 | 11.1 | 8.3 ng/mL | 194 | 2.1
6 | FC(F)(F)c1cccc(-n2cc(CN(Cc3ccncc3)CC3CCCN(C4CCCCC4)C3)c3ccccc32)c1 (stereo not drawn) [Compound 6] | 95.7 | 3.6 | 98.6 | 3.1 | 16.6 | 3.4 ng/mL | 153 | 8.7
7 | O=S(=O)(c1ccccc1)n1cc(CN(CCCNC2CCCCC2)Cc2cccnc2)c2ccccc21 [Compound 7] | 97.3 | 8.5 | 86.2 | > 50 | 9.4 | 7.8 ng/mL | 146 | 3.3
8 | O=S(=O)(c1ccccc1)n1cc(CN(CCCCNC2CCCCC2)Cc2ccnc(F)c2)c2ccccc21 [Compound 44, N1-cyclohexyl-N4-((2-fluoropyridin-4-yl)methyl)-N4-((1-(phenylsulfonyl)-1H-indol-3-yl)methyl)butane-1,4-diamine] |  |  |  |  | 8.6 |  | 109 | 
9 | O=S(=O)(c1ccccc1)n1cc(CN(CCCCCNC2CCCCC2)Cc2cccnc2F)c2ccccc21 [Compound 46, N1-cyclohexyl-N5-((2-fluoropyridin-3-yl)methyl)-N5-((1-(phenylsulfonyl)-1H-indol-3-yl)methyl)pentane-1,5-diamine] |  |  |  |  | 10.8 |  | 124 | 
10 | O=S(=O)(c1ccccc1)n1cc(CN(CCCCNC2CCCCC2)Cc2ccc(F)nc2)c2ccccc21 [Compound 55, N1-cyclohexyl-N4-((6-fluoropyridin-3-yl)methyl)-N4-((1-(phenylsulfonyl)-1H-indol-3-yl)methyl)butane-1,4-diamine] |  |  |  |  | 7.8 |  | 172 | 
11 | CN(CCCCN(Cc1ccc(F)nc1)Cc1cn(S(=O)(=O)c2ccccc2)c2ccccc12)C1CCCCC1 [Compound 57, N1-cyclohexyl-N4-((6-fluoropyridin-3-yl)methyl)-N1-methyl-N4-((1-(phenylsulfonyl)-1H-indol-3-yl)methyl)butane-1,4-diamine] |  |  |  |  | 9.4 |  | 113 | 
12 | O=S(=O)(c1ccccc1)n1cc(CN(CCCCCNCc2ccnc(F)c2)Cc2ccnc(F)c2)c2ccccc21 [Compound 61] |  |  |  |  | 29.8 |  | 64 | 
13 | CCCN(CCCCN(Cc1cccnc1F)Cc1cn(S(=O)(=O)c2ccccc2)c2ccccc12)C1CCCCC1 [Compound 67, N′-cyclohexyl-N^4-((2-fluoropyridin-3-yl)methyl)-N^4-((1-(phenylsulfonyl)-1H-indol-3-yl)methyl)-N′-propylbutane-1,4-diamine] |  |  |  |  | 6.7 |  | 219 | 
14 | CN(CCCCN(Cc1cccnc1F)Cc1cn(S(=O)(=O)c2ccccc2)c2ccccc12)C1CCCCCCC1 [Compound 76, N′-cyclooctyl-N^4-((2-fluoropyridin-3-yl)methyl)-N′-methyl-N^4-((1-(phenylsulfonyl)-1H-indol-3-yl)methyl)butane-1,4-diamine] | 92.8 | 4.6 |  |  | 7.9 |  | 154 | 1
15 | CN(CCCCN(Cc1cccnc1F)Cc1cn(S(=O)(=O)N2CCCC2)c2ccccc12)C1CCCCC1 [Compound 110, N1-cyclohexyl-N4-((2-fluoropyridin-3-yl)methyl)-N1-methyl-N4-((1-(pyrrolidin-1-ylsulfonyl)-1H-indol-3-yl)methyl)butane-1,4-diamine] |  |  |  |  | 17 |  | 83 | 
16 | CN1CCN(S(=O)(=O)n2cc(CN(CCOCCN(C)C3CCCCC3)Cc3cccnc3F)c3ccccc32)CC1 [Compound 111, N-(2-(2-(((2-fluoropyridin-3-yl)methyl)((1-((4-methylpiperazin-1-yl)sulfonyl)-1H-indol-3-yl)methyl)amino)ethoxy)ethyl)-N-methylcyclohexanamine] |  |  |  |  | 6 |  | 224 | 
17 | CN(CCOCCN(Cc1cccnc1F)Cc1cn(S(=O)(=O)N2CCCCC2)c2ccccc12)C1CCCCC1 [Compound 112, N-(2-(2-(((2-fluoropyridin-3-yl)methyl) ((1-(piperidin-1-ylsulfonyl)-1H-indol-3-yl)methyl)amino)ethoxy)ethyl)-N-methylcyclohexanamine] |  |  |  |  | 13 |  | 245 | 

From patent US20230416239A1, “COMPOUNDS AND METHODS FOR TREATING A CYTOKINE-MEDIATED DISEASE” (CONSERVATOIRE NATIONAL DES ARTS ET MÉTIERS, priority 2020, published 2023)
